According to patent publication US8765803B1, “Rab7 GTPase inhibitors and related methods of treatment” (STC.UNM, priority 2011, dated 2014):
Values joined by “and” are separate entries in the source; they are usually repeats but may differ in a detail not shown here. Equal values may be shown once. Read-outs that look alike come from different tables or passages of the source.

How the values were obtained:
[1] = Stability in PBS at room temperature; format: physicochemical; conditions: 23° C., after 48 hours, no antioxidants, DMSO below 0.1%
Procedure: Stability, depicted as closed circles in the graph, was assessed at room temperature (23° C.) in PBS (no antioxidants or other protectants and DMSO concentration below 0.1%). Stability data is depicted as a graph showing the loss of compound with time over a 48 hr period with a minimum of 6 time points and providing the percent remaining compound at end of the 48 hr period.

Rab7 wt [2] = assay: Equilibrium binding with varying fluorescent nucleotide at fixed CID1067700 concentration
Procedure: Dose response assays were conducted in two different modes. […].
[…]. […] […].

U937 cells = assay: Cytotoxicity of compounds, cell density and viability; format: cell-based
Procedure: U937 cells were grown to a density of 0.4×10^6 cells/mL Compounds were added to a final concentration of 20 μM or otherwise indicated. As a control, cells were treated with DMSO of the same volume. After 24 h incubation, the density and viability of the cells were measured with Countess Cell Counter according to the protocols from the manufacturer.

[3] = Chemical stability towards L-glutathione in DMSO, LCMS; format: physicochemical; conditions: 1.2-3.0 eq L-glutathione in DMSO, 37° C., up to 72 h
Procedure: The three experiments were monitored by LCMS at each of the following time points: 1 h, 2 h, 4 h, 24 h, 48 h, and 72 h. Procedure: […]

[4] = test system: Ras-related GTPases (Cdc42 wt, Rac1wt, Rac1Q61L, Rab2 wt, Rab7 wt, and H-Ras wt); conditions: secondary multiplex dose response
Procedure: The eight GTPases were grouped into two sets: Rab7, H-Ras wild type and its V12 mutant, and Cdc42 and its L61 mutant were assayed in a buffer containing 1 mM EDTA, while Rho, Rac1 and its L61 mutant, and Cdc42 and its L61 mutant were assayed in the same buffer but instead containing 1 mM Mg^2+ with Cdc42 and its mutant being tested in both buffers. Besides 1 mM EDTA or 1 mM Mg^2+, the buffer contained 30 mM HEPES, pH 7.5, 40 mM KCl, 100 mM NaCl, 0.1% (v/v) NP-40 and 1% BSA. For each multiplex reaction, an extra set of beads was included to serve as scavengers to bind any proteins that dissociate from their assigned bead set and thereby reduce interference due to protein dissociation during the assay. […] Briefly, each individual GST-tagged enzyme was incubated with 4 μm glutathione-coated microsphere beads overnight with gentle rotation. The microsphere beads have different red fluorescence dyes incorporated and therefore could be separated by a flow cytometer. The unbound enzyme was removed by sufficient washing with the buffer. The bead sets were then combined and dispensed to 384-well plates at 5 μL/well. For one plate, 0.5 μg each of the enzymes and 4.0×10^4 of each bead were used. Then 100 nL compound was added using Biomek FX followed by the addition of 5 μL/well of BODIPY-FL-GTP (ribose-linked BODIPY). […] The beads were aspirated and delivered with the HyperCyt® instrument and read on CyAnADP flow cytometer. Forward scatter and side scatter was used to define the whole bead population. […] The data was analyzed by the HyperView® software developed by Dr. Bruce Edward at the University of New Mexico.
Briefly, six sets of beads (each with a unique red fluorescence intensity) were individually coated with six representative GST-tagged Ras-related GTPases (Cdc42 wt, Rac1wt, Rac1Q61L, Rab2 wt, Rab7 wt, and H-Ras wt) (FIG. 29A). The individually conjugated beads were then assayed in the presence of individual compounds in the Molecular Libraries Small Molecule Repository using a HyperCyt flow cytometry to identify molecules that altered the binding of fluorescent nucleotide to Ras-family GTPases (36).

[5] = Solubility in PBS and assay media, UV absorbance detection; format: physicochemical; conditions: read-out: Solubility
Procedure: Solubility was measured in phosphate buffered saline (PBS) at room temperature (23° C.). PBS by definition is 137 mM NaCl, 2.7 mM KCl, 10 mM sodium phosphate dibasic, 2 mM potassium phosphate monobasic and a pH of 7.4. Detection was based on UV absorbance. […]. Solubility was also assessed in the each of the four media used in the individual assays. […]

[6] = test system: EGFR degradation in HeLa-Rab7 wt cells; assay: EGFR degradation in Rab7 overexpressing HeLa cells; format: cell-based, human; conditions: 100 μM
Procedure: EGFR degradation was also monitored in HeLa cells with some minor modifications. […] Cell lysates were prepared at various time points and immunoblotted for total EGFR while actin served as a loading control.

Rab7 wt [7] = assay: Nucleotide dissociation assay under equilibrium conditions; conditions: CID1067700 10 μM, compared with unlabeled GDP 10 μM
Procedure: This low level bead associated fluorescence was subtracted from specific binding to obtain accurate measurement of the off rates. Data normalization was performed by subtracting dilution only values from competitor treated experimental values.
The experiment was carried out by pre-binding BODIPY-GTP or BODIPY-GDP to GST-tagged Rab7 protein to equilibrium and then assaying for the loss of fluorescence over time occasioned by the release of bound nucleotide (FIG. 31A-D). […] Dissociation rate constants were calculated from data fit to exponential functions using Prism software.

[8] = test system: EGFR degradation in SCC-12F cells; assay: EGFR degradation in SCC-12F cells; format: cell-based; conditions: human keratinocytes (SCC-12F), 10-100 μM
Procedure: SCC-12F cells were seeded in 12-well plates at 0.12×10^6 cells/well and allowed to grow overnight. On the day of the experiment, the cells were starved in serum free medium containing 25 μg/mL cycloheximide for 2 h before compounds at different concentrations were added. The cells were treated for 30 min. Then, ligand EGF was added to 20 nM. At time points of 0, 15, 30, 60, and 120 min after the EGF addition, the suspension medium was removed and the cell was quickly washed with cold PBS and frozen at −80° C. For electrophoresis and blotting, CelLytic™M Cell Lysis buffer containing protease inhibitor cocktails was added to the frozen cells to obtain the cell lysates according to the protocols from the manufacture. Protein concentration was quantified using BCA assay kit. For SDS-PAGE, 10 μg protein was loaded to each lane and proteins transferred to nitrocellulose. The nitrocellulose membranes were probed with antibodies directed against EGFR or actin and detected using peroxidase conjugated secondary antibodies and SuperSignal West Dura. Signal intensities were measured and quantified using a ChemiDoc™ XRS+ molecular imager coupled with Image Lab software.

VLA-4 integrin = assay: LDV binding assay in U937 ΔST cells; format: cell-based; conditions: FITC-LDV 4 nM, after N-formyl peptide stimulation
Procedure: The procedure followed the established protocols described previously. U937 ΔST cells (0.4−0.8×10^6 cells/mL) were constantly stirred with a magnetic stir bar at 500 rpm in a test tube. The fluorescence was recorded on a FACScan flow cytometer. The base line fluorescence of the cells was established for 30s. FITC-LDV at a concentration of 4 nM was then added. After the fluorescence stabilized at around 120s, the chemotactic ligand N-formyl peptide was added for stimulation resulting activation of VLA-4 integrin and additional FITC-LDV binding. […] Fluorescence was continually recorded until no further change was observed. The inhibition percentage was calculated according to Equation 1.

CC1(C)Cc2c(sc(NC(=S)NC(=O)c3ccccc3)c2C(=O)O)CO1 [CID1067700, 2-(3-benzoylthioureido)-5,5-dimethyl-5,7-dihydro-4H-thieno[2,3-c]pyran-3-carboxylic acid]
Percent remaining compound [1]: 77% | Increase of Ki (Cheng Prusoff) between inhibition of BODIPY-GTP and BODIPY-GDP (Rab7 wt [2]): 2 fold | Effect on Rab7 wt Bmax for BODIPY-GTP (Rab7 wt [2]; CID1067700 100 nM): does not alter | Effect on Rab7 wt Bmax for BODIPY-GDP (Rab7 wt [2]; CID1067700 200 nM): does not alter | Increase in observed EC50 for both nucleotides in the presence of CID1067700 (Rab7 wt [2]; CID1067700 fixed at 100-200 nM): ≤ 3 fold | Cell viability of U937 cells after treatment (U937 cells; 24 h, 20 μM): 94% | Cytotoxicity in U937 cells (U937 cells; 24 h in growth medium): no obvious cytotoxicity | Glutathione conjugate formation by LCMS [3]: did not result in LCMS detection of any conjugates or other product peaks | Glutathione conjugate formation by LCMS ([3]; listed as SID 85747738): No glutathione conjugate or other peaks were observed | EC50 ([4]; read-out: EC50 against all tested GTPases, fluorescent GTP): 0.02 to 0.5 µM | Inhibition against all tested GTPases [4]: at least 40% | solubility ([5]; Dose Response-EDTA buffer, pH 7.5, aqueous with cosolvent or surfactant or cyclodextrin, Dose Response-EDTA buffer: 30 mM HEPES, pH 7.5, 100 mM KCl, 20 mM NaCl, 0.01% NP-40, 1 mM EDTA): 69.7 µg/mL | solubility ([5]; Dose Response-EDTA buffer, pH 7.5, aqueous with cosolvent or surfactant or cyclodextrin, Dose Response-EDTA buffer): 178 µM | solubility ([5]; Dose Response-Mg buffer, pH 7.5, aqueous with cosolvent or surfactant or cyclodextrin, Dose Response-Mg buffer: 30 mM HEPES, pH 7.5, 100 mM KCl, 20 mM NaCl, 0.01% NP-40, 1 mM MgCl2): 68.1 µg/mL | solubility ([5]; Dose Response-Mg buffer, pH 7.5, aqueous with cosolvent or surfactant or cyclodextrin, Dose Response-Mg buffer): 174 µM | solubility ([5]; phosphate buffered saline (PBS), 23 °C, pH 7.4, aqueous buffer, 1 × PBS, pH 7.4, room temperature (23° C.)): > 116 µg/mL and > 297 µM | Growth factor receptor (EGFR) degradation [6]: decreased | Effect on rate of release of bound BODIPY-GTP or BODIPY-GDP (Rab7 wt [7]): no effect | Growth factor receptor (EGFR) degradation [8]: decreased | VLA4 binding with LDV peptide (VLA-4 integrin): inhibits
